# Data from paper PMC8881501, “Identification of SARS-CoV-2 inhibitors targeting Mpro and PLpro using in-cell-protease assay” (Communications Biology, 2022).
# Values joined by “and” are separate entries in the source; they are usually repeats but may differ in a detail not shown here. Equal values may be shown once. Non-standard residues stand in square brackets, D forms with d. Residues, ends and D or L forms follow the SMILES beside them. Nle = CCCC[C@H](N)C(=O)O
# What was measured:
# SARS-CoV-2 Mpro [1] = target: T1, SARS-CoV-2 Mpro (Severe acute respiratory syndrome coronavirus 2, UniProt P0DTC1); experiment: In-cell protease (ICP) assay, Mpro construct in HEK293T cells; assay type: cell-based; settings: HEK-293T
# SARS-CoV-2 PLpro = SARS-CoV-2 PLpro (Severe acute respiratory syndrome coronavirus 2, UniProt P0DTC1); experiment: cell-based; settings: HEK-293T
# SARS-CoV-2 [2] = experiment: microbe, parasite or virus in culture; assay type: cell-based
# SARS-CoV-2 [3] = assay type: cell-based; settings: Huh-7.5, MOI 0.1, 24 h.p.i., anti-N IFA
# SARS-CoV-2 [4] = experiment: Time of addition (pre-treatment) experiment in Huh-7.5 cells, plaque assay; assay type: cell-based; settings: Huh-7.5, pretreatment
# SARS-CoV-2 Mpro [5] = target: T1, SARS-CoV-2 Mpro; experiment: biochemical; settings: Mpro 200 nM, substrate 10 μM, 1 h pre-incubation; read-out: IC50
# Description: A cleavage site is indicated by an asterisk. […] N = 3, values are represented as mean ± SE.
# For the determination of half-maximal inhibitory concentrations (IC50) of MG-101 and GC376 (BPS Bioscience), a synthetic substrate of Mpro containing FRET pair and Mpro nsp4/5 cleavage site (indicated by an arrow, Dabcyl-KTSAVLQ ↓ SGFRKME-Edans) (BPS Bioscience) was used for the FRET-based cleavage assay. The assay was performed in 96-well, black, flat-bottomed microtiter plates (Greiner Bio-One, Germany) with a final volume of 50 μl. Mpro (a final concentration of 200 nM) was pre-incubated for 1 h at 22 °C with compounds at different concentrations in the assay buffer (20 mM HEPES (pH 7), 0.5 mM EDTA, 1 mM dithiothreitol, 5% glycerol). The substrate was then added at a final concentration of 10 μM to the reaction mixture and the reaction was incubated for 4 h at 22 °C. The readings for the different concentrations of the inhibitor compounds incubated with the substrate without Mpro were measured as a blank. The fluorescence signals (excitation/emission, 360 nm/460 nm) of released EDANS were measured using Infinite 200 PRO multimode plate reader (Tecan, USA). The results were plotted as dose inhibition curves using nonlinear regression with a variable slope to determine the IC50 values of inhibitor compounds using GraphPad Prism 9.0.
# Mpro = settings: thermal shift assay as worded; cited from earlier work
# in vitro = settings: human, CC50, Huh-7.5 cells, alamarBlue reduction
# [6] = read-out: mEmerald-NLS nuclear/total fluorescence (protease activity) normalized to untreated cells, 1 μM, HEK293T, Fig 2A replicate data, untreated control = 100
# [7] = read-out: mEmerald-NLS nuclear/total fluorescence (protease activity) normalized to untreated cells, 10 μM, HEK293T, Fig 2A replicate data, untreated control = 100
compound,measurement,setting,value
CCCC[C@@H](C=O)NC(=O)[C@H](CC(C)C)NC(=O)[C@H](CC(C)C)NC(C)=O [MG-101] (Ac-Leu-Leu-[Nle]-aldehyde),remaining activity at 1 µM,SARS-CoV-2 Mpro [1]; [6],22%
same,remaining activity at 10 µM,SARS-CoV-2 Mpro [1]; [7],8.9%
same,remaining activity at 1 µM,SARS-CoV-2 PLpro; [6],68%
same,remaining activity at 10 µM,SARS-CoV-2 PLpro; [7],70%
same,EC50,"SARS-CoV-2 [2]; Severe acute respiratory syndrome coronavirus 2, Huh7.5, 24 h",0.038 µM
same,"virus titer at 24 h.p.i., Fig 6A data","SARS-CoV-2 [2]; single drug 1 μM, Huh 7.5, replicates",48000 and 56000 and 44000
same,inhibition of virus spread compared to untreated controls,SARS-CoV-2 [3],95%
same,effect of pre-treatment on virus production / entry,SARS-CoV-2 [4],affect the virus entry
same,reduction in virus titer on pretreatment of cells,SARS-CoV-2 [4],1 log
same,IC50,SARS-CoV-2 Mpro [5],2.89 ± 0.86 µM
same,IC50,Mpro,8.6 µM
same,CC50 at 24 h,in vitro,37 µM
